Tests used:
Experiment in all cases: Test B pre-/postemergence plant response
Format in all cases: in vivo
[1] = tested on: Italian ryegrass (Lolium multiflorum)
In short: (§1)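 Greenhouse herbicide screen. Pre- and postemergence (1- to 4-leaf) spray of compound in solvent/surfactant mixture; loam–sand soil for pre, peat/vermiculite medium for post. Visual control rating 0–100 at 13 to 15 days after treatment.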

[2] = tested on: pigweed (Amaranthus retroflexus)
In short: as §1

[3] = tested on: lambsquarters (Chenopodium album)
In short: as §1

[4] = tested on: cocklebur (Xanthium strumarium)
In short: as §1

[5] = tested on: bermudagrass (Cynodon dactylon)
In short: as §1

[6] = tested on: large crabgrass (Digitaria sanguinalis)
In short: as §1

[7] = tested on: velvetleaf (Abutilon theophrasti)
In short: as §1

kochia (Kochia scoparia) = settings: Postemergence; for Plant response rating, Kochia: scale 0 (no effect) to 100 (complete control); for Kochia plant response rating: 250 g ai/ha, scale 0 to 100
In short: as §1

wild oat (Avena fatua) = tested on: wild oat (Avena fatua)
In short: as §1

[8] = tested on: ragweed (common ragweed, Ambrosia elatior)
In short: as §1

[9] = tested on: Surinam grass (Brachiaria decumbens)
In short: as §1

[10] = tested on: downy bromegrass (Bromus tectorum)
In short: as §1

[11] = tested on: green foxtail (Setaria viridis)
In short: as §1

[12] = tested on: yellow nutsedge (Cyperus esculentus)
In short: as §1

[13] = tested on: blackgrass (Alopecurus myosuroides)
In short: as §1

soybean (Glycine max) = tested on: soybean (Glycine max)
In short: as §1

corn (Zea mays) = tested on: corn (Zea mays)
In short: as §1

[14] = 250 g ai/ha, Preemergence, 0 to 100 scale
[15] = Postemergence, 62 g ai/ha, scale 0 (no effect) to 100 (complete control), 13 to 15 days
[16] = Postemergence, 125 g ai/ha, visual rating after 13 to 15 days, scale 0 (no effect) to 100 (complete control)
[17] = Preemergence, 31 g ai/ha, scale 0 to 100 (0 no effect, 100 complete control)
[18] = Preemergence, 62 g ai/ha, scale 0 to 100, 0 no effect, 100 complete control
[19] = Preemergence, 125 g ai/ha, 0 to 100 scale
[20] = Postemergence, 250 g ai/ha, scale 0 to 100
[21] = Postemergence, 31 g ai/ha, scale 0 to 100 (0 no effect, 100 complete control)
[22] = 125 g ai/ha, visual rating after 13 to 15 days

O=C1CCCC(O)=C1C(=O)c1cnc(-c2cccc(Cl)c2)n(-c2ccccc2)c1=O [Compound 34]
Plant response rating, Ryegrass, Italian [1, 14]: 10
Plant response rating, Ryegrass, Italian [1, 15]: 10
Plant response rating, Ryegrass, Italian [1, 16]: 20
Plant response rating, Ryegrass, Italian [1, 17]: 0
Plant response rating, Ryegrass, Italian [1, 18]: 0
Ryegrass, Italian plant response rating [1, 19]: 5
Plant response rating, Pigweed [2, 14]: 100
Plant response rating, Pigweed [2, 15]: 90
Plant response rating, Pigweed [2, 16]: 98
Plant response rating, Pigweed [2, 17]: 100
Plant response rating, Pigweed [2, 18]: 100
Pigweed plant response rating [2, 19]: 100
Plant response rating, Lambsquarters [3, 14]: 100
Plant response rating, Lambsquarters [3, 15]: 98
Plant response rating, Lambsquarters [3, 16]: 100
Lambsquarters plant response rating [3, 20]: 100
Plant response rating, Lambsquarters [3, 17]: 100
Plant response rating, Lambsquarters [3, 18]: 100
Lambsquarters plant response rating [3, 19]: 100
Plant response rating, Cocklebur [4, 14]: 85
Plant response rating, Cocklebur [4, 21]: 0
Plant response rating, Cocklebur [4, 15]: 25
Plant response rating, Cocklebur [4, 16]: 85
Cocklebur plant response rating [4, 20]: 95
Plant response rating, Cocklebur [4, 17]: 0
Plant response rating, Cocklebur [4, 18]: 55
Cocklebur plant response rating [4, 19]: 75
Plant response rating, Bermudagrass [5, 14]: 100
Plant response rating, Bermudagrass [5, 21]: 75
Plant response rating, Bermudagrass [5, 15]: 95
Plant response rating, Bermudagrass [5, 16]: 95
Bermudagrass plant response rating [5, 20]: 98
Plant response rating, Bermudagrass [5, 17]: 100
Plant response rating, Bermudagrass [5, 18]: 100
Bermudagrass plant response rating [5, 19]: 100
Plant response rating, Crabgrass, Large [6, 14]: 100
Plant response rating, Crabgrass, Large [6, 21]: 80
Plant response rating, Crabgrass, Large [6, 15]: 85
Plant response rating, Crabgrass, Large [6, 16]: 95
Crabgrass, Large plant response rating [6, 20]: 98
Plant response rating, Crabgrass, Large [6, 17]: 55
Plant response rating, Crabgrass, Large [6, 18]: 100
Crabgrass, Large plant response rating [6, 19]: 100
Plant response rating, Velvetleaf [7, 14]: 100
Plant response rating, Velvetleaf [7, 15]: 95
Plant response rating, Velvetleaf [7, 16]: 98
Plant response rating, Velvetleaf [7, 17]: 75
Plant response rating, Velvetleaf [7, 18]: 85
Velvetleaf plant response rating [7, 19]: 95
Plant response rating, Kochia (kochia (Kochia scoparia); 62 g ai/ha, 13 to 15 days): 95
Plant response rating, Kochia (kochia (Kochia scoparia); [22]): 100
Kochia plant response rating (kochia (Kochia scoparia)): 100
Plant response rating, Oat, Wild (wild oat (Avena fatua); [14]): 60
Plant response rating, Oat, Wild (wild oat (Avena fatua); [15]): 50
Plant response rating, Oat, Wild (wild oat (Avena fatua); [16]): 60
Plant response rating, Oat, Wild (wild oat (Avena fatua); [17]): 10
Plant response rating, Oat, Wild (wild oat (Avena fatua); [18]): 10
Oat, Wild plant response rating (wild oat (Avena fatua); [19]): 30
Plant response rating, Ragweed [8, 14]: 90
Plant response rating, Ragweed [8, 15]: 85
Plant response rating, Ragweed [8, 16]: 95
Plant response rating, Ragweed [8, 17]: 75
Plant response rating, Ragweed [8, 18]: 80
Ragweed plant response rating [8, 19]: 90
Plant response rating, Surinam Grass [9, 14]: 90
Plant response rating, Surinam Grass [9, 15]: 75
Plant response rating, Surinam Grass [9, 16]: 80
Plant response rating, Surinam Grass [9, 17]: 5
Plant response rating, Surinam Grass [9, 18]: 60
Surinam Grass plant response rating [9, 19]: 65
Plant response rating, Bromegrass, Downy [10, 14]: 80
Plant response rating, Bromegrass, Downy [10, 21]: 40
Plant response rating, Bromegrass, Downy [10, 15]: 50
Plant response rating, Bromegrass, Downy [10, 16]: 50
Bromegrass, Downy plant response rating [10, 20]: 50
Plant response rating, Bromegrass, Downy [10, 18]: 0
Bromegrass, Downy plant response rating [10, 19]: 10
Plant response rating, Foxtail, Green [11, 14]: 100
Plant response rating, Foxtail, Green [11, 21]: 70
Plant response rating, Foxtail, Green [11, 15]: 90
Plant response rating, Foxtail, Green [11, 16]: 90
Foxtail, Green plant response rating [11, 20]: 95
Plant response rating, Foxtail, Green [11, 17]: 50
Plant response rating, Foxtail, Green [11, 18]: 70
Foxtail, Green plant response rating [11, 19]: 90
Plant response rating, Nutsedge, Yellow [12, 14]: 90
Plant response rating, Nutsedge, Yellow [12, 15]: 25
Plant response rating, Nutsedge, Yellow [12, 16]: 55
Plant response rating, Nutsedge, Yellow [12, 17]: 10
Plant response rating, Nutsedge, Yellow [12, 18]: 45
Nutsedge, Yellow plant response rating [12, 19]: 75
Plant response rating, Blackgrass [13, 14]: 50
Plant response rating, Blackgrass [13, 21]: 0
Plant response rating, Blackgrass [13, 15]: 5
Plant response rating, Blackgrass [13, 16]: 10
Blackgrass plant response rating [13, 20]: 40
Plant response rating, Blackgrass [13, 17]: 0
Plant response rating, Blackgrass [13, 18]: 5
Blackgrass plant response rating [13, 19]: 50
Plant response rating, Soybean (soybean (Glycine max); [14]): 80
Plant response rating, Soybean (soybean (Glycine max); [15]): 95
Plant response rating, Soybean (soybean (Glycine max); [16]): 95
Plant response rating, Soybean (soybean (Glycine max); [17]): 0
Plant response rating, Soybean (soybean (Glycine max); [18]): 45
Soybean plant response rating (soybean (Glycine max); [19]): 65
Plant response rating, Corn (corn (Zea mays); [14]): 0
Plant response rating, Corn (corn (Zea mays); [21]): 0
Plant response rating, Corn (corn (Zea mays); [15]): 0
Plant response rating, Corn (corn (Zea mays); [16]): 45
Corn plant response rating (corn (Zea mays); [20]): 50
Plant response rating, Corn (corn (Zea mays); [17]): 0
Plant response rating, Corn (corn (Zea mays); [18]): 0
Corn plant response rating (corn (Zea mays); [19]): 0

O=C1CCCC(O)=C1C(=O)c1cnc(-c2ccccc2)n(-c2ccccc2Br)c1=O [Compound 37]
Plant response rating, Ryegrass, Italian [1, 14]: 0
Plant response rating, Ryegrass, Italian [1, 15]: 0
Plant response rating, Ryegrass, Italian [1, 16]: 5
Plant response rating, Ryegrass, Italian [1, 17]: 0
Ryegrass, Italian plant response rating [1, 19]: 0
Plant response rating, Pigweed [2, 14]: 100
Plant response rating, Pigweed [2, 15]: 85
Plant response rating, Pigweed [2, 16]: 98
Plant response rating, Pigweed [2, 17]: 100
Pigweed plant response rating [2, 19]: 100
Plant response rating, Lambsquarters [3, 14]: 100
Plant response rating, Lambsquarters [3, 15]: 98
Plant response rating, Lambsquarters [3, 16]: 98
Lambsquarters plant response rating [3, 20]: 100
Plant response rating, Lambsquarters [3, 17]: 95
Plant response rating, Lambsquarters [3, 18]: 98
Lambsquarters plant response rating [3, 19]: 100
Plant response rating, Cocklebur [4, 14]: 45
Plant response rating, Cocklebur [4, 17]: 0
Cocklebur plant response rating [4, 19]: 0
Plant response rating, Bermudagrass [5, 14]: 100
Plant response rating, Bermudagrass [5, 21]: 85
Plant response rating, Bermudagrass [5, 15]: 90
Plant response rating, Bermudagrass [5, 16]: 98
Bermudagrass plant response rating [5, 20]: 100
Plant response rating, Bermudagrass [5, 17]: 10
Plant response rating, Bermudagrass [5, 18]: 80
Bermudagrass plant response rating [5, 19]: 98
Plant response rating, Crabgrass, Large [6, 14]: 100
Plant response rating, Crabgrass, Large [6, 21]: 70
Plant response rating, Crabgrass, Large [6, 15]: 75
Plant response rating, Crabgrass, Large [6, 16]: 85
Crabgrass, Large plant response rating [6, 20]: 90
Plant response rating, Crabgrass, Large [6, 17]: 0
Plant response rating, Crabgrass, Large [6, 18]: 0
Crabgrass, Large plant response rating [6, 19]: 10
Plant response rating, Velvetleaf [7, 14]: 98
Plant response rating, Velvetleaf [7, 15]: 80
Plant response rating, Velvetleaf [7, 16]: 95
Plant response rating, Velvetleaf [7, 17]: 0
Velvetleaf plant response rating [7, 19]: 20
Plant response rating, Kochia (kochia (Kochia scoparia); 62 g ai/ha, 13 to 15 days): 0
Plant response rating, Kochia (kochia (Kochia scoparia); [22]): 15
Kochia plant response rating (kochia (Kochia scoparia)): 65
Plant response rating, Oat, Wild (wild oat (Avena fatua); [14]): 10
Plant response rating, Oat, Wild (wild oat (Avena fatua); [15]): 10
Plant response rating, Oat, Wild (wild oat (Avena fatua); [16]): 40
Plant response rating, Oat, Wild (wild oat (Avena fatua); [17]): 0
Oat, Wild plant response rating (wild oat (Avena fatua); [19]): 0
Plant response rating, Ragweed [8, 14]: 98
Plant response rating, Ragweed [8, 15]: 80
Plant response rating, Ragweed [8, 16]: 95
Plant response rating, Ragweed [8, 17]: 0
Ragweed plant response rating [8, 19]: 65
Plant response rating, Surinam Grass [9, 14]: 100
Plant response rating, Surinam Grass [9, 15]: 70
Plant response rating, Surinam Grass [9, 16]: 75
Plant response rating, Surinam Grass [9, 17]: 0
Surinam Grass plant response rating [9, 19]: 55
Plant response rating, Bromegrass, Downy [10, 14]: 0
Plant response rating, Bromegrass, Downy [10, 21]: 0
Plant response rating, Bromegrass, Downy [10, 15]: 10
Plant response rating, Bromegrass, Downy [10, 16]: 15
Bromegrass, Downy plant response rating [10, 20]: 45
Plant response rating, Bromegrass, Downy [10, 17]: 0
Plant response rating, Bromegrass, Downy [10, 18]: 0
Bromegrass, Downy plant response rating [10, 19]: 0
Plant response rating, Foxtail, Green [11, 14]: 90
Plant response rating, Foxtail, Green [11, 21]: 60
Plant response rating, Foxtail, Green [11, 15]: 65
Plant response rating, Foxtail, Green [11, 16]: 85
Foxtail, Green plant response rating [11, 20]: 95
Plant response rating, Foxtail, Green [11, 17]: 0
Plant response rating, Foxtail, Green [11, 18]: 0
Foxtail, Green plant response rating [11, 19]: 0
Plant response rating, Nutsedge, Yellow [12, 14]: 90
Plant response rating, Nutsedge, Yellow [12, 15]: 15
Plant response rating, Nutsedge, Yellow [12, 16]: 25
Plant response rating, Nutsedge, Yellow [12, 17]: 0
Nutsedge, Yellow plant response rating [12, 19]: 20
Plant response rating, Blackgrass [13, 14]: 10
Plant response rating, Blackgrass [13, 21]: 0
Plant response rating, Blackgrass [13, 15]: 0
Plant response rating, Blackgrass [13, 16]: 5
Blackgrass plant response rating [13, 20]: 30
Plant response rating, Blackgrass [13, 17]: 0
Plant response rating, Blackgrass [13, 18]: 0
Blackgrass plant response rating [13, 19]: 5
Plant response rating, Soybean (soybean (Glycine max); [14]): 35
Plant response rating, Soybean (soybean (Glycine max); [15]): 80
Plant response rating, Soybean (soybean (Glycine max); [16]): 95
Plant response rating, Soybean (soybean (Glycine max); [17]): 0
Soybean plant response rating (soybean (Glycine max); [19]): 0
Plant response rating, Corn (corn (Zea mays); [14]): 0
Plant response rating, Corn (corn (Zea mays); [21]): 0
Plant response rating, Corn (corn (Zea mays); [15]): 15
Plant response rating, Corn (corn (Zea mays); [16]): 60
Corn plant response rating (corn (Zea mays); [20]): 75
Plant response rating, Corn (corn (Zea mays); [17]): 0
Plant response rating, Corn (corn (Zea mays); [18]): 0
Corn plant response rating (corn (Zea mays); [19]): 0

Reference: patent US8952024B2, “Herbicidal pyrimidone derivatives” (E I du Pont de Nemours and Company, priority 2009, dated 2015)
